Results on three compounds are retold here after ChEMBL document CHEMBL5728685, “Macrocycle containing aminopyrazole and pyrimidine and pharmaceutical composition and use thereof” (2021).

As a reminder, the IC50 is the concentration that gives 50% inhibition.

The test addresses High affinity nerve growth factor receptor (Homo sapiens, UniProt P04629). As to the kind of experiment: Inhibition Assay: A testing platform for TrkAWT kinase activity was established based on Homogeneous Time-Resolved Fluorescence (HTRF) assay, and the activities of the compounds were tested using the platform. The compounds were subjected to five-fold gradient dilution for eight times with 100% DMSO with a starting concentration of 200 μM (9 concentrations in total). 4 μL of diluted sample for …. In general terms: TR-FRET usually uses a lanthanide donor and a delayed reading to cut background.

Sequence of High affinity nerve growth factor receptor (P04629 whole entry): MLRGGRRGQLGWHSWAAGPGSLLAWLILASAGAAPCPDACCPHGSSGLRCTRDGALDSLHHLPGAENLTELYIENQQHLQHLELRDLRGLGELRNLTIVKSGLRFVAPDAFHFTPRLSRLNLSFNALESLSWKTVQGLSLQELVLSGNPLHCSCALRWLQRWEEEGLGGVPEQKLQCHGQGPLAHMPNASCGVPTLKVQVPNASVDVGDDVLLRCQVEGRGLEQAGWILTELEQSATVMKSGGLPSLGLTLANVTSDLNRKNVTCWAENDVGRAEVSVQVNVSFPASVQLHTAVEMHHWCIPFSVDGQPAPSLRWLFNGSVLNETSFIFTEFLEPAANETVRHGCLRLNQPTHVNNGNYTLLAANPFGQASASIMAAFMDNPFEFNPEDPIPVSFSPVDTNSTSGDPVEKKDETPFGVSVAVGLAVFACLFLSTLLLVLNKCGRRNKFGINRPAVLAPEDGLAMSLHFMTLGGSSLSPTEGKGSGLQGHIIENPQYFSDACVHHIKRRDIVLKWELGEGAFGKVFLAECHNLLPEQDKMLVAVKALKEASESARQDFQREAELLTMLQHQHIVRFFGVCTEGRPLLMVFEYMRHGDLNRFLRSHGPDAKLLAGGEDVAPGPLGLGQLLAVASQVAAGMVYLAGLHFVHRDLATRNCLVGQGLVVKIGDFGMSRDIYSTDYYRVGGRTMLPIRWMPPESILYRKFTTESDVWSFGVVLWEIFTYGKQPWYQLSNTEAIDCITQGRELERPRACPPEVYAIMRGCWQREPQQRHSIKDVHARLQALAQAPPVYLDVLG

`Nc1nn2ccc3nc2c1C(=O)NCCCn1cc(F)cc(c1=O)[C@H]1C[C@H](F)CN31` came in with an IC50 of 0.23 nM.

Regarding `Nc1nn2ccc3nc2c1C(=O)NCCOc1ncc(F)cc1C1CCCN31` (stereo not drawn), the midpoint of inhibition, the IC50, lay at 0.8 nM.

`C[C@@H]1CCc2ncc(F)cc2[C@H]2C[C@H](F)CN2c2ccn3nc(N)c(c3n2)C(=O)N1` had an IC50 of 0.23 nM.
